Assay results taken from PubChem BioAssay AID2253 (Southern Research Specialized Biocontainment Screening …, 2010).
Several values for one entry are separate records, joined by “and”; a condition that tells them apart may be missing. Equal values may be shown once.

The compounds below were run on THP-1 viability, CellTiter-Glo luminescence, 72 h (assay: THP-1 cell cytotoxicity, dose response, cytotoxicity control for Salmonella PhoP regulon inhibitors, S. typhimurium screen hits (AID 2253)).

| SMILES | EC50 |
| --- | --- |
| CCOC(=O)CSc1n[nH]c(NC(=O)c2cccc(C)c2)n1 | 48.7 µM |
| O=C(N/N=C/c1ccc(O)cc1O)C(=O)N/N=C/c1ccc(O)cc1O | 6.9 µM |
| CN(C)c1ccc(O)c2c1CC1CC3[C@@H](N(C)C)C(=O)C(C(N)=O)=C(O)[C@]3(O)C(=O)C1=C2O (some centres undefined) | 37 µM |
| Oc1[nH]c(=S)sc1/C=C1\C(c2ccccc2)=Nc2ccccc21 | 26 µM |
| CN1/C(=C\C=C\C2=[N+](C)c3ccc4ccccc4c3C2(C)C)C(C)(C)c2ccccc21 | 0.15 µM |
| O=CN/N=C/c1c(O)ccc2ccccc12 | 5.18 µM |
| CCCCCCCCCCOC(=O)Cn1c(COc2ccc(OC)cc2)[n+](C)c2ccccc21 | 3.17 µM and 2.22 µM |
| Cc1[nH]n(-c2ccccc2)c(=O)c1/C=N/Nc1nncc(-c2ccccc2)n1 | 0.57 µM |
| CCCCOc1ccc(Cc2cnc(N)nc2N)cc1 | 41.5 µM |
| COc1ccccc1Nc1nc(NCc2ccco2)c2ccccc2n1 | 16.2 µM |
| CCCC(=O)NC(c1ccc(Cl)cc1)c1ccc2cccnc2c1O (centres undefined) | 0.38 µM |
| Cc1nn(-c2ccccc2)c(C)c1/C=N/NC(=O)c1cc(-c2cccc3ccccc23)n[nH]1 | 17.4 µM |
| COc1ccccc1N1CCN(c2ccc(-c3ccccc3)nn2)CC1 | 2.61 µM |
| CCc1ccc(NC(=O)C[n+]2cc(-c3ccc(C)cc3)n3c2CCC3)cc1 | 5.74 µM |
| CCCCCC(CC(=O)NO)C(=O)NC(C(=O)N1CCCC1CO)C(C)C (centres undefined) | 36.2 µM |
| CCN(CC)S(=O)(=O)c1cccc(C(=O)N/N=C/c2ccc(O)c(O)c2O)c1 | 6.68 µM |
| Cc1[nH]c2ccccc2c1C(O)CN1CCN(c2cccc(C(F)(F)F)c2)CC1 (centres undefined) | 9.39 µM |
| CN1CCN(C(c2ccccn2)c2cc(Cl)c3cccnc3c2O)CC1 (centres undefined) | 9.2 µM |
| Oc1ccc(CN2CCc3ccccc3C2)c2cccnc12 | 3.39 µM |
| CCCCCCCCCC[n+]1cccc2c3ccccc3ccc21 | 0.6 µM |
| C/C(=C\C(=O)c1cccnc1)Nc1ccc(O)cc1 | 47.6 µM |
| O=C1c2ccccc2-c2onc3ccc(NCc4ccco4)c1c23 | 17.9 µM |
| O=S(=O)(/N=C(/Nc1cccc2ccccc12)c1ccccc1)c1cccs1 | 28.9 µM |
| Cc1cc(C(=O)N/N=C/c2ccc(O)c(O)c2O)c(C)n1-c1ccccc1 | 4.48 µM |
| COc1ccc(C(C[N+](=O)[O-])C2(c3ccc(OC)c(OC)c3)C(=O)c3ccccc3C2=O)cc1 (centres undefined) | 12.5 µM |
| O=c1[nH]cc(F)c(=O)[nH]1 | 4.25 µM |
| O=C(Cc1ccccc1)Nc1cccc(N2C(=O)C=CC2=O)c1 | 16.1 µM |

| SMILES | EC50 |
| --- | --- |
| CCN(CC)c1ccc(/C=N/Nc2nc3ccccc3[nH]2)c(O)c1 | 2.7 µM |
| C[C@H]1c2cccc(O)c2C(O)=C2C(=O)C3(O)C(O)=C(C(N)=O)C(=O)[C@@H](N(C)C)[C@@H]3[C@@H](O)[C@@H]21 (some centres undefined) | 34.4 µM |
| NC1=NC[C@H](Cc2ccc(O)cc2)N1CCC12CC3CC(CC(C3)C1)C2 | 10.6 µM |
| O=c1[nH]c(CSc2ncc(-c3ccc(F)cc3)n2Cc2ccco2)nc2ccccc12 | 47 µM |
| C=CS(=O)(=O)c1ccc(Oc2ccc(S(=O)(=O)C=C)cc2)cc1 | 1.4 µM |
| CCN(CC)S(=O)(=O)c1cccc(NC(=O)Nc2cccc(C(F)(F)F)c2)c1 | 5.09 µM |
| Cc1ccsc1C=Nc1ccc(O)cc1 | 25.9 µM |
| CN1c2ccccc2C(C)(C)[C@]12C=Cc1cc(O)ccc1O2 | 15.4 µM |
| O=C(NCCN1CCOCC1)c1ccc2ccccc2c1 | < 0.1 µM |
| O=c1[nH]c(NNC(=S)NCc2ccccc2)nc2c1C1(CCCCC1)Cc1ccccc1-2 | 45.1 µM |
| O=[N+]([O-])c1cc(CN2CCCC2)c2cccnc2c1O | 41.2 µM |
| CC(C)[C@@H]1CC[C@@H](C)C[C@H]1OC(=O)C[n+]1cc(-c2ccc(Cl)cc2)n2c1CCCCC2 | 2.3 µM |
| Oc1ccc(-c2n[nH]c(=S)n2-c2ccc3c(c2)OCCO3)c(O)c1 | 33.8 µM |
| CC(C)CCNCC(O)CON=C1c2ccccc2-c2ccccc21 (centres undefined) | 10.2 µM |
| Nc1cc(Cl)c2nonc2c1[N+](=O)[O-] | 2.24 µM |
| Cc1cc(/C=N/n2c(COc3ccccc3)nc3ccccc3c2=O)c(O)c([N+](=O)[O-])c1 | 4.71 µM |
| O=c1[nH]c(NCc2ccco2)nnc1Cc1ccccc1Cl | 6.65 µM |
| Cc1cc(C(=O)NNC(=S)NC(=O)/C=C/c2ccccc2Cl)n[nH]1 | 23.6 µM |
| COc1cccc(Cn2cnc3c(NS(=O)(=O)c4cccc(Cl)c4Cl)c(C)c(C)cc32)c1 | 40.4 µM |
| C/C(=N/Nc1nc(-c2ccccc2)cc(-c2ccc(F)cc2)n1)c1cccc(N)c1 | 18.1 µM |
| N/C(=N\OC(=O)N1c2ccccc2Sc2ccccc21)c1ccccc1 | 25.1 µM |
| CCc1ccc(C(c2c(C)nn(-c3ccccc3)c2N)c2c(C)nn(-c3ccccc3)c2N)cc1 | 46.1 µM |
| Cc1ccc(C)c(/C=C/C(=O)c2ccccc(=O)c2O)c1 | 9.58 µM |
| O=C(NC(c1ccc(Cl)cc1)c1c(O)ccc2ccccc12)c1ccccc1 (centres undefined) | 8.91 µM |
| O=C(NCCNc1ccc([N+](=O)[O-])cc1C(F)(F)F)c1cccc(F)c1 | 47.5 µM |
| Cc1ccc(S(=O)(=O)Nc2cc(Cl)c(O)c3ncccc23)cc1 | 1.55 µM |
| Nc1ncn([C@@H]2O[C@H](CO)[C@@H](O)[C@H]2O)c(=O)n1 | 17.4 µM |

| SMILES | EC50 |
| --- | --- |
| Cc1ccc([N+](=O)[O-])cc1-c1ccc(/C=C(\C#N)c2[nH]nc(N)c2C#N)o1 | 5.93 µM |
| NCC12CC3CC(C1)CC(c1ccc(Br)cc1)(C3)C2 | 8.36 µM |
| O=C(Nc1ccccc1)Nc1ccc(Cl)c([N+](=O)[O-])c1 | 14.2 µM |
| Cc1ccc(C(C[N+](=O)[O-])c2c(-c3ccccc3O)[nH][nH]c2=O)cc1 (centres undefined) | 27.7 µM |
| Cc1cc(/C=N/NC(N)=S)c(C)n1-c1ccc(Cl)c(Cl)c1 | 19.8 µM |
| CCOc1ccc(CNc2ccc(N3CCCC3)cc2)cc1 | 11.8 µM |
| O=C(N/N=C/c1c[nH]c2ccccc12)c1cc(-c2cccc3ccccc23)n[nH]1 | 13.8 µM |
| Cc1conc1NC(c1cccs1)c1ccc2cccnc2c1O (centres undefined) | 5.5 µM |
| C=CCNc1ncnc2c1[nH]c1ccc(C)cc12 | 25.8 µM |
| CC(C)NCCCOc1ccc(Cl)cc1Br | 44.7 µM |
| O=C(/C=C/c1ccco1)Oc1cc(Br)cc(/C=N/NC(=O)c2ccccc2O)c1 | 0.35 µM |
| CCOc1ccc(-n2c(SCc3nc(-c4ccc(C)cc4)no3)nnc2-c2ccncc2)cc1 | 28.3 µM |
| N#CC1=C(N)Oc2c(O)cc3ccccc3c2C1c1ccsc1 (centres undefined) | 21.3 µM |
| O=C(/C=C/c1ccccc1Cl)c1ccccc(=O)c1O | 12.6 µM |
| CCCCCCCCCCOC(=O)Cn1c(COc2cccc(C)c2)[n+](C)c2ccccc21 | 4.4 µM |
| O=C(c1ccccc1)C(CN1CCCC1)c1ccccc1 (centres undefined) | 5.56 µM |
| O=[N+]([O-])c1cc(O)c2ncccc2c1 | 6.48 µM |
| OC(c1cc(C(F)(F)F)nc2c(Cl)cc(Cl)cc12)C1CCCCN1 (centres undefined) | 12.6 µM |
| Cn1c(=N)n(CC(=O)c2ccc(Br)s2)c2ccccc21 | 10.1 µM |
| Cc1ccc(Nc2c3c(nc4ccccc24)CCC3)cc1 | 12.2 µM |
| CN(C)CCCNc1cc(C(C)(C)C)nc2c(-c3ccccc3)cnn12 | 9.26 µM |
| O=C(CCN1CCc2ccccc2C(c2ccccc2)C1)c1ccc2c(c1)OCCO2 (centres undefined) | 18 µM |
| c1ccc2c(CCNCc3ccc4c(c3)OCO4)c[nH]c2c1 | 24.2 µM |
| O=C1c2ccccc2NC(c2ccc(-c3cccc([N+](=O)[O-])c3)o2)N1O (centres undefined) | 6.61 µM |
| Cc1ccc(C=Nc2ccccc2C(N)=O)s1 | 10.8 µM |
